Several values for one entry are separate records, joined by “and”; a condition that tells them apart may be missing. Equal values may be shown once.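 Values below derive from 48-hour exposures of cells grown in 96-well plates, with endpoints linearly interpolated between the two concentrations bracketing the appropriate inhibition level. At the GI50, growth is halved. At the TGI there is no net growth.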
How the values were obtained:
Assay in all cases: inhibition of tumour cell growth, NCI panel, 48 h
[1] = tested on: 786-0 renal
[2] = tested on: A498 renal
[3] = tested on: A549 NSCLC
[4] = tested on: ACHN renal
[5] = tested on: CAKI-1 renal
[6] = tested on: CCRF-CEM leukemia
[7] = tested on: COLO 205 colon
[8] = tested on: DLD-1 colon
[9] = tested on: DMS 114 small cell lung
[10] = tested on: DMS 273 small cell lung
[11] = tested on: DU-145 prostate
[12] = tested on: EKVX NSCLC
[13] = tested on: HCC-2998 colon
[14] = tested on: HCT-116 colon
[15] = tested on: HCT-15 colon
[16] = tested on: HL-60(TB) leukemia
[17] = tested on: HOP-18 NSCLC
[18] = tested on: HOP-62 NSCLC
[19] = tested on: HOP-92 NSCLC
[20] = tested on: HT29 colon
[21] = tested on: IGROV1 ovarian
[22] = tested on: K-562 leukemia
[23] = tested on: KM12 colon
[24] = tested on: KM20L2 colon
[25] = tested on: LOX IMVI melanoma
[26] = tested on: M14 melanoma
[27] = tested on: M19-MEL melanoma
[28] = tested on: MALME-3M melanoma
[29] = tested on: MCF7 breast
[30] = tested on: MDA-MB-231 breast
[31] = tested on: MDA-MB-435
[32] = tested on: MDA-N
[33] = tested on: MOLT-4 leukemia
[34] = tested on: NCI-H226 lung
[35] = tested on: NCI-H23 lung
[36] = tested on: NCI-H460 lung
[37] = tested on: OVCAR-3 ovarian
[38] = tested on: OVCAR-4 ovarian
[39] = tested on: PC-3 prostate
[40] = tested on: RPMI-8226 leukemia
[41] = tested on: SF-295 CNS
[42] = tested on: SF-539 CNS
[43] = tested on: SK-MEL-2 melanoma
[44] = tested on: SK-MEL-28 melanoma
[45] = tested on: SK-MEL-5 melanoma
[46] = tested on: SK-OV-3 ovarian
[47] = tested on: SN12C renal
[48] = tested on: SNB-19 CNS
[49] = tested on: SNB-78 CNS
[50] = tested on: SW-620 colon
[51] = tested on: U251 CNS
[52] = tested on: UACC-257 melanoma
[53] = tested on: UACC-62 melanoma
[54] = tested on: UO-31 renal
[55] = tested on: LXFL 529 NSCLC
[56] = tested on: NCI-H522 lung
[57] = tested on: OVCAR-5 ovarian
[58] = tested on: OVCAR-8 ovarian
[59] = tested on: SF-268 CNS
[60] = tested on: SNB-75 CNS
[61] = tested on: TK-10 renal

`COc1cc(C2C3=C(COC3=O)Oc3cc4c(cc32)OCO4)cc(OC)c1OC` (stereo not given) was tested, and the GI50 [1] was 45.6 nM, the GI50 [2] was 36.3 nM and the TGI [2] was 18.6 nM. The GI50 [3] was less than 20.4 nM, the TGI [3] was 14200 nM and the GI50 [4] was less than 15 nM. The TGI [4] was 16400 nM, the TGI [5] was 134 nM and the GI50 [6] was 22.1 nM. For the same molecule, the TGI [6] was 338 nM and 62.5 nM, the GI50 [7] was less than 13.8 nM and the TGI [7] was 92.9 nM and 38.5 nM. The TGI [8] was greater than 100000 nM, the TGI [9] was 38.4 nM and 13.1 nM and the TGI [10] was 12700 nM. For the same molecule, the GI50 [11] was 22 nM, the TGI [11] was 87.5 nM and 67.1 nM and the GI50 [12] was 660 nM. The GI50 [13] was 21.4 nM, the TGI [13] was 62 nM and the TGI [14] was 235 nM and 1890 nM. The GI50 [15] was 35.4 nM, the TGI [16] was 50.2 nM and 41.3 nM and the GI50 [17] was greater than 100000 nM. For the same molecule, the TGI [17] was greater than 100000 nM, the GI50 [18] was 20 nM and the TGI [18] was 2140 nM. For the same molecule, the GI50 [19] was less than 11.7 nM, the TGI [19] was 88.2 nM and 90.1 nM and the GI50 [20] was 10.5 nM and 26 nM. For the same molecule, the TGI [20] was 44.4 nM, the GI50 [21] was 18.1 nM and the TGI [21] was 13300 nM. For the same molecule, the GI50 [22] was 32 nM, the TGI [22] was 131 nM and the GI50 [23] was 10.1 nM. The TGI [23] was 144 nM, the TGI [24] was 42.1 nM and 28.3 nM and the GI50 [25] was 9.94 nM. The TGI [25] was greater than 31600 nM, the GI50 [26] was less than 18.1 nM and the TGI [26] was greater than 31600 nM. For the same molecule, the TGI [27] was greater than 100000 nM, the GI50 [28] was 36 nM and the GI50 [29] was 20.4 nM. The TGI [30] was 694 nM, the GI50 [31] was 48.5 nM and the TGI [31] was 80.4 nM and 291 nM. It also gave a TGI [32] of 53.2 nM, a TGI [33] of 15100 nM and a TGI [34] of 230 nM. For the same molecule, the GI50 [35] was 28 nM, the GI50 [36] was less than 18.5 nM and the TGI [37] was 70.9 nM and 88.3 nM. The TGI [38] was 28500 nM, the GI50 [39] was 20.3 nM and the TGI [39] was 313 nM. The GI50 [40] was less than 17.6 nM, the TGI [40] was greater than 31600 nM and the TGI [41] was 57.5 nM. For the same molecule, the GI50 [42] was 14.9 nM, the TGI [42] was 49.7 nM and 42.7 nM and the GI50 [43] was 262 nM. It also gave a GI50 [44] of 11100 nM, a TGI [44] greater than 31600 nM and a GI50 [45] of less than 16.2 nM. The TGI [45] was 189 nM and 681 nM, the GI50 [46] was 32 nM and the TGI [46] was 13200 nM. For the same molecule, the GI50 [47] was 37 nM, the TGI [47] was 20900 nM and the GI50 [48] was 47.4 nM. The TGI [48] was 17400 nM, the TGI [49] was 50600 nM and the TGI [50] was greater than 31600 nM. It also gave a GI50 [51] of less than 21.3 nM, a TGI [52] of 2860 nM and a TGI [53] greater than 31600 nM. It also gave a GI50 [54] of less than 31.5 nM and a TGI [54] of 16100 nM.

With `COS(=O)(=O)OCCC(NC(=O)OCc1ccccc1)C(=O)OCc1ccccc1` (stereo not given) the TGI [1] was greater than 100000 nM, the TGI [2] was greater than 100000 nM and the TGI [3] was greater than 100000 nM. The TGI [4] was greater than 100000 nM, the TGI [5] was greater than 100000 nM and the TGI [6] was greater than 100000 nM. For the same molecule, the TGI [7] was greater than 100000 nM, the TGI [8] was greater than 100000 nM and the TGI [9] was greater than 100000 nM. It also gave a TGI [10] greater than 100000 nM, a TGI [12] greater than 100000 nM and a TGI [13] greater than 100000 nM. It also gave a TGI [14] greater than 100000 nM, a TGI [15] greater than 100000 nM and a TGI [16] greater than 100000 nM. For the same molecule, the TGI [17] was greater than 100000 nM, the TGI [18] was greater than 100000 nM and the TGI [19] was greater than 100000 nM. It also gave a TGI [20] greater than 100000 nM, a TGI [21] greater than 100000 nM and a TGI [22] greater than 100000 nM. For the same molecule, the TGI [23] was greater than 100000 nM, the TGI [24] was greater than 100000 nM and the TGI [25] was greater than 100000 nM. It also gave a TGI [55] greater than 100000 nM, a TGI [26] greater than 100000 nM and a TGI [27] greater than 100000 nM. For the same molecule, the TGI [28] was greater than 100000 nM, the TGI [33] was greater than 100000 nM and the TGI [34] was greater than 100000 nM. For the same molecule, the TGI [35] was greater than 100000 nM, the TGI [36] was greater than 100000 nM and the TGI [56] was greater than 100000 nM. The TGI [37] was greater than 100000 nM, the TGI [38] was greater than 100000 nM and the TGI [57] was greater than 100000 nM. It also gave a TGI [58] greater than 100000 nM, a TGI [40] greater than 100000 nM and a TGI [59] greater than 100000 nM. It also gave a TGI [41] greater than 100000 nM, a TGI [42] greater than 100000 nM and a TGI [43] greater than 100000 nM. The TGI [44] was greater than 100000 nM, the TGI [45] was greater than 100000 nM and the TGI [46] was greater than 100000 nM. It also gave a TGI [47] greater than 100000 nM, a TGI [48] greater than 100000 nM and a TGI [60] greater than 100000 nM. It also gave a TGI [49] greater than 100000 nM, a TGI [50] greater than 100000 nM and a TGI [61] greater than 100000 nM. For the same molecule, the TGI [51] was greater than 100000 nM, the TGI [52] was greater than 100000 nM and the TGI [53] was greater than 100000 nM. The TGI [54] was greater than 100000 nM.

— PubChem BioAssay (NCI)
